Test results: article PMC11997890, “In Vivo and In Vitro Pharmacokinetic Studies of a Dual Topoisomerase I/II Inhibitor” (ACS Pharmacology & Translational Science, 2025)

Assays:
CYP3A4 = target: T1, CYP3A4 (Homo sapiens, UniProt P08684); test: Conversion of P8-D6 by recombinant CYP3A4; assay type: in vitro ADME
T1 construct: host or cells: human liver microsomes (one value) / recombinant CYP enzyme (other value)
Protocol: P8-D6 N-oxide was the most common metabolite for all incubations with subcellular fractions from the homogenized tissue. According to the detected MS-MS fragments (supplied as Supporting Information Chapter 2), it resulted from N-oxygenation of the nitrogen at the side chain since the unmodified fragment of P8-DO (m/z = 414.1) was detected. Furthermore, the detected fragment at m/z = 440.1 is most likely a carbocation at the remaining ethyl chain after splitting off the dimethylamine N-oxide further strengthening the theory of selectively forming this specific N-oxide. In addition, no relevant chemical shifts in the aromatic range of the ^1H NMR compared to P8-D6 and mono were observed (supplied as Supporting Information Chapter 2). Thus, no chemical modifications can have occurred on the aromatic rings, and all changes must therefore affect the side chain. […] To determine which enzymes were responsible for the conversion, seven recombinant CYP 450 isoenzymes recommended by the FDA’s “Guidance for Industry” and human FMO3 were used.
Among the recombinant enzymes, P8-D6 is mostly metabolized to P8-D6 mono by CYP3A4 (0.34%, significant compared to any other enzyme, p < 0.0001) and 2D6 (0.17%, significant compared to 2C8, 1A2, 2C19, and 2C9, p < 0.005) (Figure E). […]

human α2-HS glycoprotein = target: T2, human α2-HS glycoprotein (Homo sapiens, UniProt P02765); test: Binding to isolated plasma protein by ultrafiltration
T2 construct: purchased Merck KGaA, Darmstadt G0516
Protocol: (§1) To examine the effect of the P8-D6 plasma protein binding on the in vivo bioavailability, human and rat plasma was spiked in vitro and incubated with P8-D6. By using ultrafiltration to separate free P8-D6 from the protein-bound fraction, a plasma protein binding of 99% (Figure A) was estimated. However, neither human α-1-microglobulin (3.06%) nor human serum albumin (0.91%) is responsible for binding. According to initial findings, γ-globulins (94.59%), human transferrin (90.43%), LDL (87.99%), human α2-HS glycoprotein (85.29%), and human fibrinogen (78.89%) lead to binding of P8-D6.
(§2) To examine the extent of plasma protein binding, 150 μL of blank samples of human plasma (1 mM) and rat plasma (1 mM), human albumin (1 mM, #A1653, Merck KGaA, Darmstadt); human α1-acid glycoprotein (1 mM; #G9885, Merck KGaA, Darmstadt); human α2-HS-glycoprotein (0.1 mM; #G0516, Merck KGaA, Darmstadt); human transferrin (0.2 mM; #T8158, Merck KGaA, Darmstadt); human fibrinogen (0.2 mM; #F3879, Merck KGaA, Darmstadt); LDL (0.2 mM; […]); and human γ-globulin (1 mM; #G4386, Merck KGaA, Darmstadt) were spiked with P8-D6 in the same final concentration as the protein and incubated in a shaking water bath at 37 °C for 120 min. Afterward, the unbound fraction of P8-D6 was separated by ultrafiltration (Vivaspin 500 10 000 MWCO filter). The sample preparation was performed according to plasma samples. Blank plasma samples served as the control samples.

human fibrinogen = target: T3, human fibrinogen (Homo sapiens, UniProt P02671+P02675+P02679); test: as above
T3 construct: purchased Merck KGaA, Darmstadt F3879
Protocol: as §1, §2

LDL = test: as above
Protocol: as §1, §2

human = target: T4, human (Homo sapiens, UniProt P02763); test: as above
T4 construct: purchased Merck KGaA, Darmstadt G9885
Protocol: as §1, §2

human transferrin = target: T5, human transferrin (Homo sapiens, UniProt P02787); test: as above
T5 construct: purchased Merck KGaA, Darmstadt T8158
Protocol: as §1, §2

human serum albumin = target: T6, human serum albumin (Homo sapiens, UniProt P02768); test: as above
T6 construct: purchased Merck KGaA, Darmstadt A1653
Protocol: as §1, §2

CYP2D6 = target: T7, CYP2D6 (Homo sapiens, UniProt P10635); test: In vitro CYP inhibition, marker substrate dextromethorphan; assay type: in vitro ADME
T7 construct: host or cells: human liver microsomes (one value) / recombinant CYP enzyme (other value)
Protocol: (§3) To assess metabolizing enzyme-mediated drug interactions, P8-D6 was incubated with human liver (HLM) or recombinant CYP enzymes and the respective marker substrate according to the FDA (with the exception of using amitriptyline instead of S-mephenytoin). −
(§4) However, as some conversions were catalyzed by several enzymes, the conversion rates in HLM increased (e.g., bupropion and diclofenac).
(§5) To examine a possible in vitro CYP inhibition, the following CYP enzymes and marker substrates were investigated according to the FDA: , phenacetin (CYP1A2), bupropion (CYP2B6), amodiaquine (CYP2C8), diclofenac (CYP2C9), amitriptyline (CYP2C19), dextromethorphan (CYP2D6), testosterone (CYP3A4), and nifedipine (CYP3A4). Incubation was performed in a 0.2 mL reaction mix consisting of PBS buffer (pH 7.4), 1 mM marker substrate, 1 mM NADPH, and either 0.5 mg/mL recombinant CYP enzyme or human liver microsomes. P8-D6 was added for a final concentration of 0.5 μM, 1 μM, 5 μM, 10 μM, 25 μM, 50 μM, 100 μM, 500 μM, 1000 μM, and (in some cases) 5000 μM. Sample preparation was performed according to in vitro biotransformation.

CYP2C19 = target: T8, CYP2C19 (Homo sapiens, UniProt P33261); test: In vitro CYP inhibition, marker substrate amitriptyline; assay type: in vitro ADME
T8 construct: host or cells: human liver microsomes (one value) / recombinant CYP enzyme (other value)
Protocol: as §3, §4, §5

CYP2B6 = target: T9, CYP2B6 (Homo sapiens, UniProt P20813); test: In vitro CYP inhibition, marker substrate bupropion; assay type: in vitro ADME
T9 construct: host or cells: human liver microsomes (one value) / recombinant CYP enzyme (other value)
Protocol: as §3, §4, §5

T7 sequence (P10635 whole entry): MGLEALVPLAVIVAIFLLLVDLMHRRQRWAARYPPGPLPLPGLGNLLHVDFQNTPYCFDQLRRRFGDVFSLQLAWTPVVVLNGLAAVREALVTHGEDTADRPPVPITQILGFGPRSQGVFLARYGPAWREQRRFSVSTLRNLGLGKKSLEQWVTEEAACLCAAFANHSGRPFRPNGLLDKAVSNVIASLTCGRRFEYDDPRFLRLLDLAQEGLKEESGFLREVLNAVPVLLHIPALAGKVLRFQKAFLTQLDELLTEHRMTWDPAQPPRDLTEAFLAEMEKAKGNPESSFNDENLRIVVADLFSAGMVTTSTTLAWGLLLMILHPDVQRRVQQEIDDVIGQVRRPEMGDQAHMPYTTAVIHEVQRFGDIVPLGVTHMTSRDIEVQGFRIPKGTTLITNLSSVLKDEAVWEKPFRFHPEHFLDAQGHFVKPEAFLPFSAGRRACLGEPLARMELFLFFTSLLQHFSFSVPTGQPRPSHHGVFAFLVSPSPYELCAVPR
T9 sequence (P20813 whole entry): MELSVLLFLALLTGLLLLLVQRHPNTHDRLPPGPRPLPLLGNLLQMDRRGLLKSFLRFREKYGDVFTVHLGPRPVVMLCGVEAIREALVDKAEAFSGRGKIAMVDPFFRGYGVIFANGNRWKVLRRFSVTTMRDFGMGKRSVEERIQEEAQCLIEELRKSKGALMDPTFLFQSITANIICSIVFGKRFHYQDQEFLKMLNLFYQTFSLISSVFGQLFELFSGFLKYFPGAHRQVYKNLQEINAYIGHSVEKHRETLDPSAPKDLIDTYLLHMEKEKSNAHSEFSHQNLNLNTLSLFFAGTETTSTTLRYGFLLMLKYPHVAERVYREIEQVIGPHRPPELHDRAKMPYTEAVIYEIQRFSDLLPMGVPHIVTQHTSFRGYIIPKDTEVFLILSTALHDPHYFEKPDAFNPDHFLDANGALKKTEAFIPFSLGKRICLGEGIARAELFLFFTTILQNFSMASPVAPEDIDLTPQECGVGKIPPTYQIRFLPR
T8 sequence (P33261 whole entry): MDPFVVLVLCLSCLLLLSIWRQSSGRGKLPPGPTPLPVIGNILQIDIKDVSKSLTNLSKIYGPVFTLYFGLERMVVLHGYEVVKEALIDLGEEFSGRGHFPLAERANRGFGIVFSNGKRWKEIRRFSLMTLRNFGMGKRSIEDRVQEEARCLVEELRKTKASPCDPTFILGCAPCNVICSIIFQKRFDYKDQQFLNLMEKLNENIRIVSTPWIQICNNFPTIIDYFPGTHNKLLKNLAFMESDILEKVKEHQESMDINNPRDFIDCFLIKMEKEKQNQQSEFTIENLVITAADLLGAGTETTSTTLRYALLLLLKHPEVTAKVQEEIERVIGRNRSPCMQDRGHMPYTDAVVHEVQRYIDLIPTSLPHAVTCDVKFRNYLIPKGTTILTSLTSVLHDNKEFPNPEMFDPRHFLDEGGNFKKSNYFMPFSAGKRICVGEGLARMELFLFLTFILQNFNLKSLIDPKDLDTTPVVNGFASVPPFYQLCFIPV
T2 sequence (P02765 19-367): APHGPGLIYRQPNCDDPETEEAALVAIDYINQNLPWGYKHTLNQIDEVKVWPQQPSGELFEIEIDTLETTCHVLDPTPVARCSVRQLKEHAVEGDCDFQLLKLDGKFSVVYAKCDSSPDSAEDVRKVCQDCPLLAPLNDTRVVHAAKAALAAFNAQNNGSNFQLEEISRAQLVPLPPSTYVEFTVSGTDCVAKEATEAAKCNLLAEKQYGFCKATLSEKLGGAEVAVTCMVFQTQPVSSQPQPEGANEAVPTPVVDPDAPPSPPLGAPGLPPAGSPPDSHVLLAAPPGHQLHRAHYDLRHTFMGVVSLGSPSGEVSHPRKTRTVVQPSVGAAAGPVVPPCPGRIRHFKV
T6 sequence (P02768 25-609): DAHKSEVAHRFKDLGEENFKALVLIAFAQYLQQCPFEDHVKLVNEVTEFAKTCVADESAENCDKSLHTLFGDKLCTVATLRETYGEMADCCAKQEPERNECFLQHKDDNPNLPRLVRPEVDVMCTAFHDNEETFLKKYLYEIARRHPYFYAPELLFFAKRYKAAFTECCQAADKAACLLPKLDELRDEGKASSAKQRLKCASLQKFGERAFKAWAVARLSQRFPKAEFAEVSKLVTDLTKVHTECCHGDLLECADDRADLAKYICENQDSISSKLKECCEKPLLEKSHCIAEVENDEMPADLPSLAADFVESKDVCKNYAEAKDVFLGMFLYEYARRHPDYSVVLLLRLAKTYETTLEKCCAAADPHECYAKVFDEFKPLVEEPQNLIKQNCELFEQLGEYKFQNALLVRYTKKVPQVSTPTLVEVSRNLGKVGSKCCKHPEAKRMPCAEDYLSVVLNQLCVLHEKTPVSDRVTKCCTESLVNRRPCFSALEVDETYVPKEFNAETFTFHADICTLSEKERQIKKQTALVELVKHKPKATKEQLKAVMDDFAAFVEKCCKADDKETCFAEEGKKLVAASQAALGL
T3 sequence (P02671 20-629 limits assumed): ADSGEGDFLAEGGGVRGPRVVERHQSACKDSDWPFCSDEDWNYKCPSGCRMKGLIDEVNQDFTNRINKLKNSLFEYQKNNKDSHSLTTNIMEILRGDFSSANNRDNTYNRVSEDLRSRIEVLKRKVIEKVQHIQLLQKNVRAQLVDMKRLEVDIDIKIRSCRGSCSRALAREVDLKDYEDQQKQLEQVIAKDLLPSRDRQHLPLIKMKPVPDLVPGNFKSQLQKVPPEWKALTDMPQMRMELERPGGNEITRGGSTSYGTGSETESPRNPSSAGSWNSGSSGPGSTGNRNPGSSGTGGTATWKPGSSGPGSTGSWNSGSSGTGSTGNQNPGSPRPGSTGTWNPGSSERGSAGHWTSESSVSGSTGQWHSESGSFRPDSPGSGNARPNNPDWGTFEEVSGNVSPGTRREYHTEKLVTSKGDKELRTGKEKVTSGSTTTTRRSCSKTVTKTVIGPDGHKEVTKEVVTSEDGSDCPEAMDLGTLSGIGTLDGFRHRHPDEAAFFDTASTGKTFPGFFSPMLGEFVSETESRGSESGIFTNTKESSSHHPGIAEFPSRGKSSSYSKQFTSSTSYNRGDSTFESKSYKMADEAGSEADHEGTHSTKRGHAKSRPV
T3 sequence (P02675 31-491): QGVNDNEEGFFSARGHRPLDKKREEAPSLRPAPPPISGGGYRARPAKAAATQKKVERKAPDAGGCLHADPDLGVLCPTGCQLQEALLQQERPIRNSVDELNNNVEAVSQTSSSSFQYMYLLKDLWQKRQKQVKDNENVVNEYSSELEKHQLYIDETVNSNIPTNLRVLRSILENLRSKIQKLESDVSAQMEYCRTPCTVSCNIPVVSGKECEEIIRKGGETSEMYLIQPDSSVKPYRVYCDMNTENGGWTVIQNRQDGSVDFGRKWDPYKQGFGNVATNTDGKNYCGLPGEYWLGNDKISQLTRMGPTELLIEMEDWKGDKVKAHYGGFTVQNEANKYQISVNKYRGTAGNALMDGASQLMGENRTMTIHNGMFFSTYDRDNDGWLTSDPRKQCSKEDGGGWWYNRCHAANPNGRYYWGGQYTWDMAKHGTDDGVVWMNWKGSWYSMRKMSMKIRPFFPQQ
T3 sequence (P02679 27-433 limits assumed): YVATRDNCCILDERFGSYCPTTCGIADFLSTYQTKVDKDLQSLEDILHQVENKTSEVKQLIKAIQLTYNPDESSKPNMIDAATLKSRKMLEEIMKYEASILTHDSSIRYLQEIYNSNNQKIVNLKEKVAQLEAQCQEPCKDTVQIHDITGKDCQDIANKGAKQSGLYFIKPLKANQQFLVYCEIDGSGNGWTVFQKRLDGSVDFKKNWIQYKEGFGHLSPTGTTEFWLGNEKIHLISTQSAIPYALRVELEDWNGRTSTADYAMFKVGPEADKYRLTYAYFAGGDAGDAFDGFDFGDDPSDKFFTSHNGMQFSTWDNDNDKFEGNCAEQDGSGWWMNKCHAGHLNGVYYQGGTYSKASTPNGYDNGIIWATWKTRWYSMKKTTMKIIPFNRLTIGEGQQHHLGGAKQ
T5 sequence (P02787 20-698): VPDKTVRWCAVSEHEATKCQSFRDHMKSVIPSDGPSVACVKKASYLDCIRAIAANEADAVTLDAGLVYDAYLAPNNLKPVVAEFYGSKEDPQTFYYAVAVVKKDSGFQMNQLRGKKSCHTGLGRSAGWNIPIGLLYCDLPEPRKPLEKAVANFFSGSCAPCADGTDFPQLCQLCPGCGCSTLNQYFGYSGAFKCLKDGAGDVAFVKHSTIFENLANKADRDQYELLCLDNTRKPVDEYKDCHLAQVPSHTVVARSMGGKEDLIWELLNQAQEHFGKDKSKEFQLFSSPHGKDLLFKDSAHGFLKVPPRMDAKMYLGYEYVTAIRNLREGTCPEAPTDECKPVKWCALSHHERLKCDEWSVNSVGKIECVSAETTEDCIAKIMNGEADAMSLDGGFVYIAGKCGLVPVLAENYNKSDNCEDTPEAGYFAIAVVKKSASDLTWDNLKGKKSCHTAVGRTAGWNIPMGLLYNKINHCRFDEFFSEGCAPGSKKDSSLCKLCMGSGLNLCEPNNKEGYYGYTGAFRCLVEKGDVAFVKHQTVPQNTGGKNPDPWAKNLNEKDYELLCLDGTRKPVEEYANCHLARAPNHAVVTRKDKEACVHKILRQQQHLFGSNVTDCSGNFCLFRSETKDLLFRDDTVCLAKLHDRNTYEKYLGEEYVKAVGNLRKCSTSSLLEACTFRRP
T4 sequence (P02763 19-201): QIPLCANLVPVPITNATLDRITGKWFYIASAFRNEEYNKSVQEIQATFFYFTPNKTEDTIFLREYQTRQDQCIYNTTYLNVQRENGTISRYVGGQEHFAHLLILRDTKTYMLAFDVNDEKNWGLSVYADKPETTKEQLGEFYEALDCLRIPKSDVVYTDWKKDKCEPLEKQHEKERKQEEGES

Row | formation of metabolite from P8-D6 (CYP3A4) [%] | SMILES | binding of P8-D6 (human α2-HS glycoprotein) [%] | binding of P8-D6 (human fibrinogen) [%] | binding of P8-D6 (LDL) [%] | binding of P8-D6 (human) [%] | binding of P8-D6 (human transferrin) [%] | binding of P8-D6 (human serum albumin) [%] | IC50 (CYP2D6; HLM) [µM] | IC50 (CYP2D6; recombinant CYP isoenzyme) [µM] | IC50 (CYP2C19; HLM) [µM] | IC50 (CYP2C19; recombinant CYP isoenzyme) [µM] | IC50 (CYP2B6; HLM) [µM] | IC50 (CYP2B6; recombinant CYP isoenzyme) [µM]
1 | 0.34 | CNCCOc1nc2c3cnccc3cc(-c3cc(OC)c(OC)c(OC)c3)c2c2ccncc12 [P8-D6 mono] | – | – | – | – | – | – | – | – | – | – | – | –
2 | – | COc1cc(-c2cc3ccncc3c3nc(OCCN(C)C)c4cnccc4c23)cc(OC)c1OC [P8-D6, 6-(N,N-dimethyl-2-aminoethoxy)-11-(3,4,5-trimethoxyphenyl)-pyrido[3,4-c][1,9]-phenanthroline] | 85.29 | 78.89 | 87.99 | 3.06 | 90.43 | 0.91 | 285 | 166 | 149 | 793 | > 1000 | > 1000
